Data taken from article PMC4476799, “Englerin A Agonizes the TRPC4/C5 Cation Channels to Inhibit Tumor Cell Line Proliferation” (PLoS ONE, 2015).
Like-named read-outs stand apart in the source and are kept apart here.

System: cancer cell lines from the cancer cell line encyclopedia (CCLE)
Experiment: Cell line profiling (CLiP) proliferation experiment
Format: cell-based
Set-up: key to Compound Activity (1-inactive;2-active): 1-inactive; 2-active; ACTIVITY_AREA: scale not given here; AMAX: unit not given here
Conditions: for IC50: read-out: Crossing Point; for EC50: read-out: Inflection Point
Procedure: Compound profiling experiment and data analysis was performed as previously described. Data was imported and plotted using the Tibco Spotfire DXP application. Lines were categorized as sensitive, intermediate and refractory as follows: Amax<-40 & Inflection Point <2 ~ Sensitive, Amax>-20 & Inflection Point >10 ~ Refractory, all else were called Intermediate. Cancer Cell line HG-U133 Plus 2 data was processed and normalized as described. […] Five sets of refractory cell lines were generated from the pool of refractory cell lines trying to match the lineage composition of the set of sensitive cell lines. The limma package was used as previously described to perform the statistical comparison.

[1] = UM-UC-3 cell line, urinary_tract, transitional_cell_carcinoma
[2] = VM-CUB1 cell line, urinary_tract, transitional_cell_carcinoma
[3] = VMRC-RCW cell line, kidney, renal_cell_carcinoma
[4] = VMRC-RCZ cell line, kidney, renal_cell_carcinoma
[5] = WSU-DLCL2 cell line, haematopoietic_and_lymphoid_tissue, diffuse_large_B_cell_lymphoma
[6] = YKG1 cell line, central_nervous_system, astrocytoma_Grade_IV
[7] = Z-138 cell line, haematopoietic_and_lymphoid_tissue, mantle_cell_lymphoma
[8] = ZR-75-1 cell line, breast, ductal_carcinoma
[9] = cell line 8-MG-BA, central_nervous_system, astrocytoma_Grade_IV
[10] = cell line 697, haematopoietic_and_lymphoid_tissue, acute_lymphoblastic_leukaemia
[11] = cell line 769-P, kidney, clear_cell_renal_cell_carcinoma
[12] = cell line 786-O, kidney, clear_cell_renal_cell_carcinoma
[13] = cell line 8305C, thyroid, anaplastic_carcinoma
[14] = cell line 23132/87, stomach, adenocarcinoma
[15] = cell line A4/Fuk, haematopoietic_and_lymphoid_tissue, diffuse_large_B_cell_lymphoma
[16] = cell line A-204, soft_tissue, NS
[17] = cell line BDCM, haematopoietic_and_lymphoid_tissue, acute_lymphoblastic_B_cell_leukaemia
[18] = cell line BHY, upper_aerodigestive_tract, squamous_cell_carcinoma
[19] = cell line BICR 6, upper_aerodigestive_tract, squamous_cell_carcinoma
[20] = cell line BICR 22, upper_aerodigestive_tract, squamous_cell_carcinoma
[21] = cell line CAL-29, urinary_tract, transitional_cell_carcinoma
[22] = cell line DOHH-2, haematopoietic_and_lymphoid_tissue
[23] = cell line EB1, haematopoietic_and_lymphoid_tissue
[24] = cell line EB2, haematopoietic_and_lymphoid_tissue
[25] = cell line EM-2 (haematopoietic_and_lymphoid_tissue, blast_phase_chronic_myeloid_leukaemia)
[26] = cell line EM-2, haematopoietic_and_lymphoid_tissue
[27] = cell line EOL-1, haematopoietic_and_lymphoid_tissue
[28] = cell line FaDu, upper_aerodigestive_tract

## CC(C)[C@@]12C[C@@H](O)[C@@](C)(O1)[C@@H]1CC[C@@H](C)[C@H]1[C@@H]2OC(=O)/C=C/c1ccccc1 [Englerin B]
[1]
  ACTIVITY_AREA: 37.41
  AMAX: -54.71
  RESPONSE: INTERMEDIATE
[2]
  ACTIVITY_AREA: 96.55
  AMAX: -58.31
  RESPONSE: INTERMEDIATE
VMRC-RCW (kidney)
  IC50: > 30 µM
[3]
  ACTIVITY_AREA: 10.22
  AMAX: -25.65
  IC50: > 30 µM
VMRC-RCZ (kidney)
  IC50: > 30 µM
[4]
  ACTIVITY_AREA: 26.25
  AMAX: -46.92
  RESPONSE: INTERMEDIATE
  IC50: > 30 µM
WM983B, WM-983B (skin)
  IC50: > 30 µM
WM983B, WM-983B cell line, skin, NS
  IC50: > 30 µM
WM1799 cell line, skin, NS
  ACTIVITY_AREA: 44.8
  AMAX: -38.05
  RESPONSE: INTERMEDIATE
WM-88 (skin)
  IC50: > 30 µM
WM-88 cell line, skin, NS
  ACTIVITY_AREA: 55.16
  AMAX: -34.98
  RESPONSE: INTERMEDIATE
  IC50: > 30 µM
WM-115 cell line, skin, NS
  ACTIVITY_AREA: 73.29
  AMAX: -15.29
  RESPONSE: REFRACTORY
WM-266-4 cell line, skin, NS
  ACTIVITY_AREA: 31.57
  AMAX: -38.36
  RESPONSE: INTERMEDIATE
WM-793 cell line, skin, NS
  ACTIVITY_AREA: 26.94
  AMAX: -46.79
  RESPONSE: INTERMEDIATE
WM-983B cell line, skin, NS
  ACTIVITY_AREA: 63.66
  AMAX: -43.12
  RESPONSE: INTERMEDIATE
WM-1799, WM1799 (skin)
  IC50: > 30 µM
WM-1799, WM1799 cell line, skin, NS
  IC50: > 30 µM
WS1 (skin)
  IC50: > 30 µM
WS1, WS1 cell line, skin
  IC50: > 30 µM
WS1 cell line, skin
  ACTIVITY_AREA: 21.77
  AMAX: -26.6
  RESPONSE: INTERMEDIATE
[5]
  ACTIVITY_AREA: 47.3
  AMAX: -92.11
  RESPONSE: INTERMEDIATE
YAPC cell line, pancreas, NS
  ACTIVITY_AREA: 25.5
  AMAX: -44.67
  RESPONSE: INTERMEDIATE
[6]
  ACTIVITY_AREA: 26.45
  AMAX: -20.02
  RESPONSE: INTERMEDIATE
YMB-1 cell line, breast, NS
  ACTIVITY_AREA: 29.44
  AMAX: -63.02
  RESPONSE: INTERMEDIATE
  IC50: 21 µM
  EC50: 21 µM
[7]
  ACTIVITY_AREA: 90.79
  AMAX: -65.74
  RESPONSE: INTERMEDIATE
[8]
  ACTIVITY_AREA: 42.06
  AMAX: -53.16
Call per compound
  Compound Activity (1-inactive;2-active): 1
Call per compound, repeated on every line
  Compound Activity (1-inactive;2-active): 1
Call printed on every cell-line row
  Compound Activity (1-inactive;2-active): 1
[9]
  ACTIVITY_AREA: 36.6
  AMAX: -52.73
  RESPONSE: INTERMEDIATE
Cell line 59M, ovary, NS
  ACTIVITY_AREA: 26.55
  AMAX: -38.54
  RESPONSE: INTERMEDIATE
  IC50: > 30 µM
Cell line 59M
  IC50: > 30 µM
[10]
  IC50: 18.6 µM
  EC50: 18.6 µM
[11]
  ACTIVITY_AREA: 13.6
  AMAX: -49.16
  RESPONSE: INTERMEDIATE
[12]
  ACTIVITY_AREA: 46.1
  AMAX: -38.05
  RESPONSE: INTERMEDIATE
Cell line 1321N1 (central_nervous_system, astrocytoma)
  Compound Activity (1-inactive;2-active): 1
[13]
  ACTIVITY_AREA: 19.13
  AMAX: -42.05
  RESPONSE: INTERMEDIATE
[14]
  ACTIVITY_AREA: 152.84
  AMAX: -72.44
  RESPONSE: INTERMEDIATE
  IC50: 15.3 µM
  EC50: 15.3 µM
[15]
  IC50: 18.1 µM
  EC50: 18.1 µM
[16]
  ACTIVITY_AREA: 22.22
  AMAX: -45.81
  RESPONSE: INTERMEDIATE
Cell line AGS, stomach, adenocarcinoma
  IC50: 5.71 µM
[17]
  IC50: 16.9 µM
  EC50: 16.9 µM
[18]
  IC50: 23.5 µM
  EC50: 9.33 µM
[19]
  IC50: 23 µM
  EC50: 23 µM
Cell line BICR 16, upper_aerodigestive_tract, squamous_cell_carcinoma
  IC50: 9.26 µM
[20]
  IC50: 18.8 µM
  EC50: 15 µM
Cell line C32, skin, NS
  IC50: > 30 µM
[21]
  IC50: 15.9 µM
  EC50: 13.1 µM
Cell line COLO-800 (skin, NS)
  Compound Activity (1-inactive;2-active): 1
Cell line COV504 (ovary, NS)
  Compound Activity (1-inactive;2-active): 1
Cell line Caov-3 (ovary, adenocarcinoma)
  Compound Activity (1-inactive;2-active): 1
Cell line DBTRG-05MG (central_nervous_system, astrocytoma_Grade_IV)
  Compound Activity (1-inactive;2-active): 1
Cell line DLD-1 (large_intestine, adenocarcinoma)
  Compound Activity (1-inactive;2-active): 1
Cell line DMS 79, lung
  ACTIVITY_AREA: 49.26
  AMAX: -10.4
  RESPONSE: REFRACTORY
[22]
  ACTIVITY_AREA: 33.67
  AMAX: -98.82
  RESPONSE: INTERMEDIATE
Cell line DU 145 (prostate, NS)
  Compound Activity (1-inactive;2-active): 1
Cell line DU 145, prostate
  ACTIVITY_AREA: 176.13
  AMAX: -54.93
  RESPONSE: INTERMEDIATE
Cell line DV-90 (lung, adenocarcinoma)
  Compound Activity (1-inactive;2-active): 1
Cell line DV-90, lung
  ACTIVITY_AREA: 23.59
  AMAX: -71.93
  RESPONSE: INTERMEDIATE
[23]
  ACTIVITY_AREA: 13.39
  AMAX: -56.14
  RESPONSE: INTERMEDIATE
  IC50: 28.7 µM
[24]
  ACTIVITY_AREA: 28.45
  AMAX: -57.08
  RESPONSE: INTERMEDIATE
  IC50: 25.8 µM
Cell line EBC-1, lung
  ACTIVITY_AREA: 56.14
  AMAX: -53.25
  RESPONSE: INTERMEDIATE
Cell line EFM-19 (breast, ductal_carcinoma)
  Compound Activity (1-inactive;2-active): 1
Cell line EFM-19, breast
  ACTIVITY_AREA: 28.98
  AMAX: -31.96
  RESPONSE: INTERMEDIATE
Cell line EFM-192A, breast
  ACTIVITY_AREA: 78.14
  AMAX: -57.28
  RESPONSE: INTERMEDIATE
[25]
  Compound Activity (1-inactive;2-active): 1
  IC50: > 30 µM
[26]
  ACTIVITY_AREA: 14.33
  AMAX: -44.27
  RESPONSE: INTERMEDIATE
  IC50: > 30 µM
Cell line EN, endometrium
  ACTIVITY_AREA: 5.5
  AMAX: -23.22
  RESPONSE: INTERMEDIATE
  IC50: > 30 µM
Cell line EN
  IC50: > 30 µM
[27]
  ACTIVITY_AREA: 60.59
  AMAX: -94.78
  RESPONSE: INTERMEDIATE
Cell line ES-2, ovary
  ACTIVITY_AREA: 44.96
  AMAX: -44.71
  RESPONSE: INTERMEDIATE
  IC50: > 30 µM
Cell line ES-2
  IC50: > 30 µM
Cell line ESS-1, endometrium
  ACTIVITY_AREA: 41.09
  AMAX: -72.67
  RESPONSE: INTERMEDIATE
Cell line FU-OV-1, ovary
  ACTIVITY_AREA: 158.99
  AMAX: -69.93
  RESPONSE: INTERMEDIATE
  IC50: 3.19 µM
[28]
  ACTIVITY_AREA: 21.14
  AMAX: -61.31
  RESPONSE: INTERMEDIATE
Cell line G-361, skin
  ACTIVITY_AREA: 55.99
  AMAX: -32.98
  RESPONSE: INTERMEDIATE
Cell line G-401, soft_tissue
  ACTIVITY_AREA: 47.08
  AMAX: -74.97
  RESPONSE: INTERMEDIATE
Cell line G-402, soft_tissue
  ACTIVITY_AREA: 90.01
  AMAX: -70.25
  RESPONSE: INTERMEDIATE
